This passage reports EC50 results from patent US12583858B2 (Genentech, Inc., priority 2015, dated 2026).

What is called EC50 is the concentration needed to bring the measured effect to its halfway point.

In this assay the target is T1, TDO2 (Homo sapiens, UniProt P48775).
T1 construct: decreased levels of NFK in SW48 cells (high TDO expressing cells)
T1 sequence (P48775 whole entry): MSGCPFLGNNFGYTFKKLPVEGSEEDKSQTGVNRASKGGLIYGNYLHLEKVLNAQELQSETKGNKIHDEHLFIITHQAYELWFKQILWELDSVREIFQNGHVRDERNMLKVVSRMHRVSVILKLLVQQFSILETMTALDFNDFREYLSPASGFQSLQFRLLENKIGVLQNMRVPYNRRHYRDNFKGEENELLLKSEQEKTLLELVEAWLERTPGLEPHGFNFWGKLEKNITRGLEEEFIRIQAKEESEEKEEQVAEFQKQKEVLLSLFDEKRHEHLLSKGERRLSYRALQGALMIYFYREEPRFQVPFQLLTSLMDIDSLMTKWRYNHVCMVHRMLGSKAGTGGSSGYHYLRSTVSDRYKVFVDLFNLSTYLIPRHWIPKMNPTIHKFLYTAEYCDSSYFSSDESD
Briefly: TDO2 cell assay (NFK GreenScreen, SW48 cells). Format: cell-based. Conditions: SW48 cells (high TDO expressing), 200 uM tryptophan, 24 hours; Table 3; read-out: TDO2 Cell Fluor EC50.
Description: The NFK GreenScreen™ (NTRC, Netherlands) uses a specific chemical probe that binds to N-Formylkynurenine (NFK), a product of tryptophan catabolism facilitated by IDO or TDO and causes fluorescence at 510 nm when excited at 410 nm. […] The assay is multiplexed with Cell Titer-Glo® (Promega) to determine if compounds are cytotoxic. […] Cells are counted on a Vi-Cell (Beckman Coulter). SW48 cells are diluted to 1×10^6 cells/ml in assay media. A172 cells are diluted to 0.24×10^6 cells/ml in assay media. […] 5 ul of assay media containing 1.2 mM tryptophan are added to the SW48 cells for a final concentration of 200 uM tryptophan in each well. 5 ul of assay media containing 600 uM tryptophan and 600 ng/ml IFNγ are added to the A172 cells for a final concentration of 100 uM tryptophan and 100 ng/ml IFNγ in each well. The final DMSO concentration is 0.5%. Cell plates are placed at room temperature in a closed TC hood with the blower off to allow cells to settle for approximately 30 min. Plates are then moved to an incubator set at 37° C., 5% CO2 for 24 hours. After the 24 hour compound incubation, 8 ul of NFK green reagent is added to each well with a Multidrop™ Combi dispenser (Thermo Scientific). Plates are sealed and incubated at 37° C., 5% CO2 for 5 hours, then read on a PHERAstar® (BMG labtech). Data are analyzed by normalizing to DMSO and high inhibitor controls. After the plates have been read for NFK green, 25 ul of Cell Titer-Glo® (Promega) are added to each well, incubated for 15 minutes at room temperature, and read on the Envision (Perkin Elmer). Cell Titer-Glo data are analyzed by normalizing to the DMSO controls. Four-parameter curve fitting is used and EC50 data are reported.
As to `Cc1cc2c(cn1)[C@@H](O)[C@@H]([C@H]1c3ccccc3-c3cncn31)C2` [Example 59a, (6R,7S)-6-((S)-5H-imidazo[5,1-a]isoindol-5-yl)-3-methyl-6,7-dihydro-5H-cyclopenta[c]pyridin-7-ol], the EC50 was found to be 0.95 µM.
The result for `Cc1cc2c(cn1)[C@H](O)[C@H]([C@@H]1c3ccccc3-c3cncn31)C2` [Example 59b, (6S,7R)-6-((R)-5H-imidazo[5,1-a]isoindol-5-yl)-3-methyl-6,7-dihydro-5H-cyclopenta[c]pyridin-7-ol] reads 0.82 µM; that for `NC(=O)c1ccc2c(c1)CC[C@@H]([C@H]1c3ccccc3-c3cncn31)[C@H]2O` [Example 60f, (5R,6S)-5-hydroxy-6-((S)-5H-imidazo[5,1-a]isoindol-5-yl)-5,6,7,8-tetrahydronaphthalene-2-carboxamide], 0.057 µM; that for `O[C@@H]1c2ncccc2CC[C@H]1[C@H]1c2ccccc2-c2cncn21` [Example 63a, (7S,8S)-7-((S)-5H-imidazo[5,1-a]isoindol-5-yl)-5,6,7,8-tetrahydroquinolin-8-ol], 0.061 µM.
As to `O[C@H]1c2ncccc2CC[C@H]1[C@H]1c2ccccc2-c2cncn21` [Example 63c, (7S,8R)-7-((S)-5H-imidazo[5,1-a]isoindol-5-yl)-5,6,7,8-tetrahydroquinolin-8-ol], the EC50 is 20 µM.
The result for `CS(=O)(=O)N1CC[C@@H]([C@@H]2c3ccccc3-c3cncn32)[C@H](O)C1` [Example 64a, (3S,4S)-4-((R)-5H-imidazo[5,1-a]isoindol-5-yl)-1-(methylsulfonyl)piperidin-3-ol] reads greater than 25 µM; that for `CS(=O)(=O)N1CCC(C2c3ccccc3-c3cncn32)C(O)C1` [Example 64c, (3R,4R)-4-((R)-5H-imidazo[5,1-a]isoindol-5-yl)-1-(methylsulfonyl)piperidin-3-ol], greater than 25 µM; that for `CC1(C)COC[C@@H]([C@H]2c3ccccc3-c3cncn32)[C@H]1O` [Example 66a, (4R,5R)-5-((S)-5H-imidazo[5,1-a]isoindol-5-yl)-3,3-dimethyltetrahydro-2H-pyran-4-ol], greater than 25 µM.
With `O[C@H]1[C@@H]([C@@H]2c3ccccc3-c3cncn32)CCC12CCOCC2` [Example 68a, (1S,2R)-2-((R)-5H-imidazo[5,1-a]isoindol-5-yl)-8-oxaspiro[4.5]decan-1-ol], the EC50 was found to be 6.8 µM.
The result for `CNS(=O)(=O)N1CC[C@H]([C@H]2c3ccccc3-c3cncn32)[C@@H](O)C1` [Example 74a, (3R,4R)-3-hydroxy-4-((S)-5H-imidazo[5,1-a]isoindol-5-yl)-N-methylpiperidine-1-sulfonamide] reads 4 µM; that for `CNS(=O)(=O)N1CC[C@@H]([C@H]2c3ccccc3-c3cncn32)[C@H](O)C1` [Example 74b, (3S,4S)-3-hydroxy-4-((S)-5H-imidazo[5,1-a]isoindol-5-yl)-N-methylpiperidine-1-sulfonamide], 0.11 µM; that for `CN(C)S(=O)(=O)N1CC[C@H]([C@H]2c3ccccc3-c3cncn32)[C@@H](O)C1` [Example 78a], 4.5 µM.
The result for `CN(C)S(=O)(=O)N1CC[C@@H]([C@H]2c3ccccc3-c3cncn32)[C@H](O)C1` [Example 78b] reads 0.16 µM.
The result for `O[C@H]1CN(CC(F)(F)F)CC[C@@H]1[C@H]1c2ccccc2-c2cncn21` [Example 82a, (3R,4R)-4-((S)-5H-imidazo[5,1-a]isoindol-5-yl)-1-(2,2,2-trifluoroethyl)piperidin-3-ol] reads 4.4 µM; that for `O[C@@H]1CN(CC(F)(F)F)CC[C@H]1[C@H]1c2ccccc2-c2cncn21` [Example 82b, (3S,4S)-4-((S)-5H-imidazo[5,1-a]isoindol-5-yl)-1-(2,2,2-trifluoroethyl)piperidin-3-ol], 0.33 µM; that for `CN1CC[C@H]([C@H]2c3ccccc3-c3cncn32)[C@@H](O)C1` [Example 83a, (3R,4R)-4-[(5S)-5H-imidazo[4,3-a]isoindol-5-yl]-1-methylpiperidin-3-ol], greater than 25 µM.
As to `CN1CC[C@@H]([C@H]2c3ccccc3-c3cncn32)[C@H](O)C1` [Example 83b, (3S,4S)-4-((S)-5H-imidazo[5,1-a]isoindol-5-yl)-1-methylpiperidin-3-ol], the EC50 is 1.4 µM.
On to `O[C@@H]1CC2(COC2)[C@H]1[C@@H]1c2ccccc2-c2cncn21` [Example 87b, (5S,6R)-5-((R)-5H-imidazo[5,1-a]isoindol-5-yl)-2-oxaspiro[3.3]heptan-6-ol], for which the EC50 was 0.3 µM.
The result for `O[C@@H]1c2ccccc2CC[C@H]1[C@H]1c2ccccc2-c2cncn21` [Example 102e, (1S,2S)-2-((S)-5H-imidazo[5,1-a]isoindol-5-yl)-1,2,3,4-tetrahydronaphthalen-1-ol] reads 0.032 µM.
The result for `O[C@H]1c2ccccc2CC[C@@H]1[C@@H]1c2ccccc2-c2cncn21` [Example 102f, (1R,2R)-2-((R)-5H-imidazo[5,1-a]isoindol-5-yl)-1,2,3,4-tetrahydronaphthalen-1-ol] reads 5.4 µM.
Then `O[C@@H]1CN(C2COC2)CC[C@H]1[C@H]1c2ccccc2-c2cncn21` [Example 103, (3S,4S)-4-((S)-5H-imidazo[5,1-a]isoindol-5-yl)-1-(oxetan-3-yl)piperidin-3-ol], with 12 µM; and `N#Cc1ccc2c(c1)[C@H](O)[C@@H]([C@@H]1c3ccccc3-c3cncn31)CC2` [Example 113a, (7R,8R)-8-hydroxy-7-((R)-5H-imidazo[5,1-a]isoindol-5-yl)-5,6,7,8-tetrahydronaphthalene-2-carbonitrile], with 1 µM.
For `CCS(=O)(=O)N1CCC2(CC1)C[C@@H]([C@@H]1c3ccccc3-c3cncn31)[C@@H]2O` [Example 114b, (1S,2S)-7-(ethylsulfonyl)-2-((R)-5H-imidazo[5,1-a]isoindol-5-yl)-7-azaspiro[3.5]nonan-1-ol], the EC50 is greater than 25 µM.
The result for `O[C@@H]1COCC[C@H]1[C@H]1c2c(F)cccc2-c2cncn21` [Example 120a, (3S,4S)-4-((S)-6-fluoro-5H-imidazo[5,1-a]isoindol-5-yl)tetrahydro-2H-pyran-3-ol] reads greater than 25 µM; that for `O[C@H]1COCC[C@@H]1[C@@H]1c2c(F)cccc2-c2cncn21` [Example 120b, (3R,4R)-4-((R)-6-fluoro-5H-imidazo[5,1-a]isoindol-5-yl)tetrahydro-2H-pyran-3-ol], greater than 25 µM.
The result for `O[C@H]1c2ncsc2CC[C@@H]1[C@@H]1c2ccccc2-c2cncn21` [Example 125a, (4R,5R)-5-((R)-5H-imidazo[5,1-a]isoindol-5-yl)-4,5,6,7-tetrahydrobenzo[d]thiazol-4-ol] reads greater than 25 µM.
For the compound `O[C@@H]1c2ncsc2CC[C@H]1[C@H]1c2ccccc2-c2cncn21` [Example 125b, (4S,5S)-5-((S)-5H-imidazo[5,1-a]isoindol-5-yl)-4,5,6,7-tetrahydrobenzo[d]thiazol-4-ol], the EC50 stood at 0.067 µM.
The result for `CS(=O)(=O)N1CCC[C@](O)([C@@H]2c3ccccc3-c3cncn32)C1` [Example 134a, (R)-3-((S)-5H-imidazo[5,1-a]isoindol-5-yl)-1-(methylsulfonyl)piperidin-3-ol] reads 1.1 µM; that for `CC(C)[C@@H](O)[C@H]1c2ccc(F)cc2-c2cncn21` [Example 135b, (R)-1-((R)-8-fluoro-5H-imidazo[5,1-a]isoindol-5-yl)-2-methylpropan-1-ol], greater than 25 µM.
The result for `O[C@@H]1c2cccn2CC[C@@H]1[C@@H]1c2ccccc2-c2cncn21` [Example 136b, (7R,8S)-7-((R)-5H-imidazo[5,1-a]isoindol-5-yl)-5,6,7,8-tetrahydroindolizin-8-ol] reads greater than 25 µM; that for `CC[C@H](O)[C@@H]1c2ccccc2-c2cncn21` [Example 137b, (S)-1-((S)-5H-imidazo[5,1-a]isoindol-5-yl)propan-1-ol], 7.9 µM; that for `O[C@H](C1CCOCC1)[C@@H]1c2ccccc2-c2cncn21` [Example 138a, (R)—((S)-5H-imidazo[5,1-a]isoindol-5-yl)(tetrahydro-2H-pyran-4-yl)methanol], 9.7 µM.
As for `O[C@H](C1CCCCC1)[C@@H]1c2ccccc2-c2cncn21` [Example 148a, (R)-cyclohexyl((S)-5H-imidazo[5,1-a]isoindol-5-yl)methanol], the EC50 amounted to 14 µM.
Take `O[C@@H](C1CCCCC1)[C@H]1c2ccccc2-c2cncn21` [Example 148b, (S)-cyclohexyl((R)-5H-imidazo[5,1-a]isoindol-5-yl)methanol]: the EC50 turned out to be 16 µM.
Then `O[C@@H]1CC(CF)(CF)[C@@H]1[C@H]1c2ccccc2-c2cncn21` [Example 150a, (1R,2R)-3,3-bis(fluoromethyl)-2-((S)-5H-imidazo[5,1-a]isoindol-5-yl)cyclobutan-1-ol], with 12 µM; and `O[C@H]1CC(CF)(CF)[C@H]1[C@@H]1c2ccccc2-c2cncn21` [Example 150c, (1S,2S)-3,3-bis(fluoromethyl)-2-((R)-5H-imidazo[5,1-a]isoindol-5-yl)cyclobutan-1-ol], with 0.11 µM.
Regarding `O[C@@H]1c2c(F)cnn2CC[C@@H]1[C@@H]1c2ccccc2-c2cncn21` [Example 151a, (4S,5R)-3-fluoro-5-((R)-5H-imidazo[5,1-a]isoindol-5-yl)-4,5,6,7-tetrahydropyrazolo[1,5-a]pyridin-4-ol], the half-maximal effective concentration (EC50) stood at 0.52 µM.
Then `CC(C)(C(N)=O)[C@@H](O)[C@H]1c2ccccc2-c2cncn21` [Example 155a, (R)-3-hydroxy-3-((R)-5H-imidazo[5,1-a]isoindol-5-yl)-2,2-dimethylpropanamide], with 0.33 µM.
The result for `O[C@H]1c2[nH]ncc2CC[C@H]1[C@H]1c2ccccc2-c2cncn21` [Example 157d, (6S,7R)-6-((S)-5H-imidazo[5,1-a]isoindol-5-yl)-4,5,6,7-tetrahydro-1H-indazol-7-ol] reads 23 µM; that for `OC1CC(C2c3ccccc3-c3cncn32)C1O` (stereo not shown) [Example 158a, 3-(5H-imidazo[5,1-a]isoindol-5-yl)cyclobutane-1,2-diol], 7.9 µM.
